Experimental data reported in US10052311B2, “PPAR compounds for use in the treatment of fibrotic diseases” (INVENTIVA, priority 2014, dated 2018).
Several values for one entry are separate records, joined by “and”; a condition that tells them apart may be missing. Equal values may be shown once.

Key:
anti-GBM exposed mice = assay: Anti-GBM induced glomerulonephritis in mice; format: in vivo, mouse; settings: vs vehicle
mouse PPARγ = mouse PPARγ (Mus musculus, UniProt P37238); assay: cell-based
human PPARα = target: T1, human PPARα (Homo sapiens, UniProt Q07869); assay: Transient transactivation assay, Cos-7 cells, chimeric PPARα-Gal4, luciferase reporter; format: cell-based; settings: Gal4 chimera, mean of 6 experiments
T1 sequence (Q07869 200-468 limits assumed): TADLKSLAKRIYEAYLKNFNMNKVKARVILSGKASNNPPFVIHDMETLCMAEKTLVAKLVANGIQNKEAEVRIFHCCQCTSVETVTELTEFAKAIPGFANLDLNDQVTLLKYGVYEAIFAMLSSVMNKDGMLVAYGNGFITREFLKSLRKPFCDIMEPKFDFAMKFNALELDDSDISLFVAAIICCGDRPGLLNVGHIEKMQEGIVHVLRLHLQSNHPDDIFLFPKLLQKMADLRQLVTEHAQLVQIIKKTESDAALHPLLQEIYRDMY
Experimental: (§1) Transfections were performed by a chemical agent (Jet PEI).

mouse PPARα = target: T2, mouse PPARα (Mus musculus, UniProt P23204); assay: as above; format: cell-based; settings: Gal4 chimera, mean of 6 experiments
T2 sequence (P23204 200-468 limits assumed): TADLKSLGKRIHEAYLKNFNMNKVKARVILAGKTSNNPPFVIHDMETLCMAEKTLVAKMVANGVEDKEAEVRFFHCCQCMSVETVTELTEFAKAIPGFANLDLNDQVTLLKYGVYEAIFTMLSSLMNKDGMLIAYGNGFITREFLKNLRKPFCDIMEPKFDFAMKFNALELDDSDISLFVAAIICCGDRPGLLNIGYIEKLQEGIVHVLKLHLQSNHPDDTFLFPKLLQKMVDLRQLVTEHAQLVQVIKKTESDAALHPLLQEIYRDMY
Experimental: as §1

bleomycin-exposed mice [1] = assay: Bleomycin-induced pulmonary fibrosis in mice; settings: vs vehicle
Experimental: At the end of the treatment, animals were sacrificed and plasma samples and livers were harvested. Expression of genes that are known to be implicated in the pulmonary inflammation process was quantified and plasmatic levels of lung parameters were measured.
The animals were housed in groups of 3-10 in polypropylene cages (floor area=1032 cm^2) under standard conditions: room temperature (22±2° C.), hygrometry (55±10%), light/dark cycle (12 h/12 h), air replacement (15-20 volumes/hour), water and food (SDS, RM1) ad libitum. Mice were allowed to accommodate themselves for at least 5 days prior to the experimentation. Mice were numbered by marking their tail using indelible markers.
Bleomycin (Laboratoire Bellon) was dissolved in 0.9% NaCl (CDM Lavoisier, France) just before use.
On day 14, 2 hours after dosing, animals were anaesthetised with pentobarbital (60 mg/kg, ip) and blood was collected using cardiac puncture. […] Blood sampling (0.9 mL of total blood) was placed in pre-chilled 2-mL lithium-heparin collection tubes. The blood samples were gently mixed, placed on crushed ice and centrifuged within 30 min of sampling at approximately 1500×g for 10 min at approximately +4° C. For each blood sampling, the resultant plasma was separated into 2 aliquots (at least 100 μL each) and transferred using disposable plastic material into polypropylene tubes. The samples were immediately transferred in the upright position to a freezer where they were kept at −20° C.
After terminal blood sampling, lung tissue was removed: • A first tissue sample (middle lobe) was harvested and fixed with paraformaldehyde, and kept at 5±3° C. • A second tissue sample (right lobe) was frozen in liquid nitrogen and kept at −20° C.
For the quantification of collagen, sections were stained with Picro-Sirius red and counterstained with Mayer's haematoxylin. […] For all slides, analysis was performed by a single experimenter strictly in the same conditions.
mRNA extraction was performed on small frozen lung samples (50-100 mg). Briefly, samples were cryogenically ground with mortar and pestle. […] RNA quantity was determined with Nanodrop (ND2000 Thermo Scientific) and RNA quality was verified with Bioanalyzer (2100 Agilent Technology).
Real Time PCR was performed on ABI PRISM 7900 apparatus Raw data from ABI7900 were exported in text format. […] Each RNA samples were reverse transcribed and quantified in triplicate.
Samples of lung and supernatants were kept on ice during all experiment. For extraction, the manufacturer recommends 10 mg of tissue for 100 μl T-Per+1 μl “Halt-protease” (100×).
50 ml of T-Per buffer were prepared, to which 500 μl of “Halt-protease” (100×) were added, and the mixture was kept on ice. Samples of 50 to 70 mg of lung just thawed were weighed and cut into small pieces, and 1 ml of cold PBS was added to wash the tissue. The mixture was centrifuged at 500 g during 5 min at 4° C., and the supernatant was discarded. 100 μl/10 mg of T-Per+antiproteases (100×) were added, crushing the lung with a Potter, with 5 or 6 twists, up and down. The mixture was centrifuged at 10000 g during 5 min at 4° C. The supernatant was removed, aliquoted and kept at −20° C. for the subsequent measurement of biomarkers.
All proteins were quantified with ELISA Kit, according to the instructions of the manufacturers: • osteopontin: Quantikine Mouse Osteopontin immunoassay, R&D SYSTEMS®, Ref:MOST00 • MCP-1: Quantikine Mouse CCL2/JE/MCP-1 ELISA Kit, R&D SYSTEMS®, ref: MJE00 • TIMP-1: Mouse TIMP-1, R&D SYSTEMS®, Ref: TM100.
All parameters were analysed using Graphpad software (version 5.1). The parameters were analysed as followed: • Using one-way ANOVA (treatment) to compare groups (1, 2 and 3). […] When ANOVA was found significant, a Dunnett's test was used to compare group 1 to group 4, to group 5, to group 6 and to group 7).

bleomycin-exposed mice [2] = assay: Bleomycin-induced skin fibrosis in mice; format: in vivo, mouse; settings: vs vehicle
Experimental: The experiments were carried out on 6-week-old male C56BL/6 mice (Janvier, Le Genest-Saint-Isle, France).
0.9% NaCl was used as control (100 μL subcutaneous injections).
On day 21, mice were sacrificed by cervical dislocation, and skin samples were taken and processed for analysis.
Lesional skin areas were excised, fixed in 4% formalin and embedded in paraffin. Five μm thick sections were stained with haematoxylin and eosin. The dermal thickness was analyzed at 100-fold magnification by measuring the distance between the epidermal-dermal junction and the dermal-subcutaneous fat junction at four sites from lesional skin of each mouse. Two independent examiners performed the evaluation before a consensus in case of more of 10% of variability of the measures.
The collagen content in lesional skin samples was explored by hydroxyproline assay. After digestion of punch biopsies (ø3 mm) in 6M HCl for three hours at 120° C., the pH of the samples was adjusted to 7 with 6M NaOH. Afterwards, samples were mixed with 0.06 M chloramine T and incubated for 20 min at room temperature. […] The absorbance was determined at 557 nm with a Spectra MAX 190 microplate spectrophotometer (Molecular Devices, Sunnyvale, Calif., USA).
Total soluble collagen in cell culture supernatants was quantified using a Sircol collagen assay (Biocolor). Briefly, cell culture supernatant was mixed with sirius red dye for 30 minutes at room temperature. After centrifugation, the pellet was dissolved in alkali reagent. Measurement was performed using a SpectraMax 190 microplate spectrophotometer (Molecular Devices) at a wavelength of 540 nm.
Data were expressed as mean±standard error of the mean. The Student t-test was used for statistical analyses. A p value of less than 0.05 was considered as a statistically significant result.

CCl4-exposed mice = assay: Carbon tetrachloride (CCl4)-induced liver fibrosis in mice; format: in vivo, mouse; settings: vs vehicle
Experimental: Mice were allowed to habituate for at least 5 days prior to experimentation.
Sunflower oil (twice a week for 3 weeks, ip)/vehicle (once a day for 22 days po), n=7, • 2. […] CCl4 (3.5 mL/kg, twice a week for 3 weeks, ip)/vehicle (once a day for 22 days po), n=8 • 5.
Two days a week for 3 weeks, mice were intraperitoneally administered in the morning with either 100 μL of CCl4 (3.5 mL kg in sunflower oil (v/v, 1/11)) or 100 μL of sunflower oil.
Measured Parameters Collagen
mRNA extraction was performed on small frozen liver samples (50-100 mg).

mouse PPARγ, sequence (P37238 238-505 limits assumed): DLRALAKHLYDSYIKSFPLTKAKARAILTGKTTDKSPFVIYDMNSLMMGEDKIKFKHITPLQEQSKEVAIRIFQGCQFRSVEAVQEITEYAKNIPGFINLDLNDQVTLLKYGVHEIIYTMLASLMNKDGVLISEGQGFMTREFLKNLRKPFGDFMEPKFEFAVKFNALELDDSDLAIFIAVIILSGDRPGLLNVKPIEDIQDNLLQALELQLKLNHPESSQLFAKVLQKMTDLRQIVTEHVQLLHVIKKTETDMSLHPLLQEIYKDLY

EC50 (mouse PPARγ): 170 nM
EC50 (human PPARα): 920 nM
EC50 (mouse PPARα): 290 nM
Structure (SMILES): O=C(O)CCCc1cc2cc(Cl)ccc2n1S(=O)(=O)c1ccc2ncsc2c1 [compound A, 5-Chloro-1-[(6-benzothiazolyl)sulfonyl]-1H-indole-2-butanoic acid]
Col1a expression (kidney) (anti-GBM exposed mice; 30 mg/kg/day po 7 days): reduced
Col3a expression (kidney) (anti-GBM exposed mice; 30 mg/kg/day po 7 days): reduced
kidney MCP-1 levels (anti-GBM exposed mice; 30 mg/kg/day po 7 days): reduced
kidney osteopontin levels (anti-GBM exposed mice; 30 mg/kg/day po 7 days): reduced
serum urea levels (anti-GBM exposed mice; 30 mg/kg/day po 7 days): reduced
urinary albumin levels (anti-GBM exposed mice; 30 mg/kg/day po 7 days): reduced
urinary volume (anti-GBM exposed mice; 30 mg/kg/day po 7 days): reduced urinary volume compared to vehicle without reaching significance
Col1a expression (kidney) (anti-GBM exposed mice; 100 mg/kg/day po 7 days): significantly inhibited Col1a expression
Col3a expression (kidney) (anti-GBM exposed mice; 100 mg/kg/day po 7 days): significantly inhibited Col3a expression
TGFβR-1 expression (kidney) (anti-GBM exposed mice; 100 mg/kg/day po 7 days): significantly inhibited TGFβ-R1 expression
kidney MCP-1 levels (anti-GBM exposed mice; 100 mg/kg/day po 7 days): significantly reduced MCP-1 levels
kidney osteopontin levels (anti-GBM exposed mice; 100 mg/kg/day po 7 days): significantly reduced osteopontin levels
number of pathological glomeruli (anti-GBM exposed mice; 100 mg/kg/day po 7 days): significantly reduced the number of pathological glomeruli
serum urea levels (anti-GBM exposed mice; 100 mg/kg/day po 7 days): significantly reduced urea levels
urinary albumin levels (anti-GBM exposed mice; 100 mg/kg/day po 7 days): reduced albumin levels compared to vehicle without reaching significance
urinary volume (anti-GBM exposed mice; 100 mg/kg/day po 7 days): reduced urinary volume compared to vehicle without reaching significance
MCP-1 expression (lung) (bleomycin-exposed mice [1]; 30 mg/kg/day po 15 days): inhibited MCP-1 expression compared to vehicle without reaching significance
TIMP-1 expression (lung) (bleomycin-exposed mice [1]; 30 mg/kg/day po 15 days): inhibited TIMP-1 expression compared to vehicle without reaching significance
lung MCP-1 levels (bleomycin-exposed mice [1]; 30 mg/kg/day po 15 days): reduced MCP-1 levels compared to vehicle without reaching significance
lung TIMP-1 levels (bleomycin-exposed mice [1]; 30 mg/kg/day po 15 days): significantly reduced TIMP-1 levels
lung osteopontin levels (bleomycin-exposed mice [1]; 30 mg/kg/day po 15 days): reduced osteopontin levels compared to vehicle without reaching significance
osteopontin expression (lung) (bleomycin-exposed mice [1]; 30 mg/kg/day po 15 days): significantly inhibited osteopontin expression
Col1a expression (lung) (bleomycin-exposed mice [1]; 100 mg/kg/day po 15 days): significantly inhibited Col1a expression
Col3a expression (lung) (bleomycin-exposed mice [1]; 100 mg/kg/day po 15 days): significantly inhibited Col3a expression
MCP-1 expression (lung) (bleomycin-exposed mice [1]; 100 mg/kg/day po 15 days): inhibited MCP-1 expression compared to vehicle without reaching significance
TGFβR-1 expression (lung) (bleomycin-exposed mice [1]; 100 mg/kg/day po 15 days): significantly inhibited TGFβR-1 expression
TIMP-1 expression (lung) (bleomycin-exposed mice [1]; 100 mg/kg/day po 15 days): inhibited TIMP-1 expression compared to vehicle without reaching significance
collagen deposition (lung) (bleomycin-exposed mice [1]; 100 mg/kg/day po 15 days): significantly decreased collagen deposition levels
fibronectin expression (lung) (bleomycin-exposed mice [1]; 100 mg/kg/day po 15 days): significantly inhibited fibronectin expression
lung MCP-1 levels (bleomycin-exposed mice [1]; 100 mg/kg/day po 15 days): reduced MCP-1 levels compared to vehicle without reaching significance
lung TIMP-1 levels (bleomycin-exposed mice [1]; 100 mg/kg/day po 15 days): significantly reduced TIMP-1 levels
lung osteopontin levels (bleomycin-exposed mice [1]; 100 mg/kg/day po 15 days): reduced osteopontin levels compared to vehicle without reaching significance
osteopontin expression (lung) (bleomycin-exposed mice [1]; 100 mg/kg/day po 15 days): significantly inhibited osteopontin expression
collagen content (skin) (bleomycin-exposed mice [2]; 30 mg/kg po 21 days): significantly reduced the collagen content
dermal thickness (bleomycin-exposed mice [2]; 30 mg/kg po 21 days): significantly reduced dermal thickness
hydroxyproline content in lesioned skin (bleomycin-exposed mice [2]; 30 mg/kg po 21 days): significantly lower
collagen content (skin) (bleomycin-exposed mice [2]; 100 mg/kg po 21 days): significantly reduced the collagen content
dermal thickness (bleomycin-exposed mice [2]; 100 mg/kg po 21 days): more significantly reduced dermal thickness
hydroxyproline content in lesioned skin (bleomycin-exposed mice [2]; 100 mg/kg po 21 days): significantly lower
Col1a expression (liver) (CCl4-exposed mice; 30 mg/kg/day po 22 days): significantly inhibited the expression of Col1a
TGFβ-1 expression (liver) (CCl4-exposed mice; 30 mg/kg/day po 22 days): significantly inhibited the expression of TGFβ-1
decrease of collagen levels (hepatic fibrosis) (CCl4-exposed mice; 30 mg/kg/day po 22 days): 80%
fibronectin expression (liver) (CCl4-exposed mice; 30 mg/kg/day po 22 days): significantly inhibited the expression of fibronectin
plasma triglycerides (CCl4-exposed mice; 30 mg/kg/day po 22 days): significantly reduced plasma triglycerides
Col1a expression (liver) (CCl4-exposed mice; 100 mg/kg/day po 22 days): significantly inhibited the expression of Col1a
MCP-1 expression (liver) (CCl4-exposed mice; 100 mg/kg/day po 22 days): significantly inhibited the expression of MCP-1
TGFβ-1 expression (liver) (CCl4-exposed mice; 100 mg/kg/day po 22 days): significantly inhibited the expression of TGFβ-1
fibronectin expression (liver) (CCl4-exposed mice; 100 mg/kg/day po 22 days): significantly inhibited the expression of fibronectin
plasma triglycerides (CCl4-exposed mice; 100 mg/kg/day po 22 days): significantly reduced plasma triglycerides
α-SMA expression (liver) (CCl4-exposed mice; 100 mg/kg/day po 22 days): inhibited the expression of α-SMA compared to vehicle without reaching significance
decrease of collagen levels (hepatic fibrosis) (CCl4-exposed mice; 100 mg/kg/day po 22 days, 100 mg/kg/day): 89% and 90%
